Laboratory results from US20250388572A1, “USE OF HPK1 INHIBITOR IN PREVENTION AND/OR TREATMENT OF HUMAN PATHOGEN INFECTION” (priority 2022, published 2025).
Where two headings read alike, the source gives them in different places.

Key:
in vivo [1] = conditions: male, Sprague Dawley, rat
Method: Six male Sprague Dawley rats were administrated a single dose via intravenous injection (iv, n=3) and oral administration (po, n=3), respectively. Intravenous injection was performed by formulating the compounds into 0.25 mg/ml or 0.5 mg/mL solutions using 10% DMSO/30% PEG400/60% water and administering it at a volume of 2 mL/kg. Oral administration was performed by formulating the compounds into 0.6 mg/ml or 2.0 mg/mL homogeneous suspensions using 0.5% methylcellulose and administering it at a volume of 5 mL/kg.
The pharmacokinetic parameters of the compounds were calculated using the WinNolin non-compartmental model.

[2] = Method: (§1) The procedure for identifying microsomal metabolites is as follows:
(§2) The compounds (test compounds and their numbers are shown below, among which compounds A1 and B1 are prepared by referring to the relevant method disclosed in CN110396087A) were weighed and dissolved into dimethyl sulfoxide to prepare a 20 mM solution. The compound stock solution was diluted with 50% acetonitrile in water (v/v) to a concentration of 1.0 mM as a working solution. Liver microsomes (20 mg/mL) were diluted to 1.27 mg/mL with 50 mM dipotassium hydrogen phosphate buffer as a liver microsome working solution. Reduced coenzyme was weighed and dissolved in 3307 μL of phosphate buffer (50 mM) to 5.0 mM as a reduced coenzyme working solution. For T=60 minutes samples, 4 μL of test working solution (1.0 mM) was added, followed by 316 μL of liver microsome working solution (1.27 mg/mL), and finally, 80 μL of reduced coenzyme working solution was added to start the reaction. For T=0 minutes samples, 316 μL of liver microsome working solution (1.27 mg/mL) was added and then 80 μL of reduced coenzyme working solution was added to start the reaction, without test solution incubation. After incubation at 37° C. for 60 minutes, 1200 μL of stop solution was added to stop the enzyme reaction. For T=0 minute samples, 4 μL of test working solution (1.0 mM) was added. The sample plate was placed on a vortexer and vortexed at 600 rpm for 5 minutes. Then, the sample plate was centrifuged at 4000 rpm for 10 minutes. The supernatant was removed, mixed, and dried at room temperature with nitrogen. The residue dried with nitrogen was redissolved in 300 μL of 10% acetonitrile (0.1% FA) solvent and then centrifuged at 4000 rpm for 15 minutes. The supernatant was transferred to a detection plate for mass spectrometry. Mass spectrometry was performed using LC/Q-Exactive plus.
(§3) 7-Ethoxycoumarin (10 μM) was selected as a positive control compound and operated in parallel with the compounds.

[3] = remark: listed apart in the source
Method: as §1, §2, §3

[4] = remark: listed apart in the source
Method: as §1, §2, §3

[5] = remark: listed apart in the source
Method: as §1, §2, §3

[6] = remark: listed apart in the source
Method: as §1, §2, §3

in vivo [7] = conditions: male, cynomolgus monkey
Method: Three male Cynomolgus macaques were administrated a single dose via intravenous injection (iv, 1 mg/kg, n=3), followed by oral administration (po, 10 mg/kg, n=3) after washing out for one week. Intravenous injection was performed by formulating the compounds into 1.0 mg/mL solutions using water or 10% DMSO/30% PEG400/water and administering it at a volume of 1 mL/kg. Oral administration was performed by formulating the compounds into 2.0 mg/mL solutions or suspensions using water or 0.5% methylcellulose/1.7 meq 1N hydrochloric acid and administering it at a volume of 5 mL/kg.
The pharmacokinetic parameters of the compounds were calculated using the non-compartmental model.

[8] = Solid state stability of the free base crystalline form A (HPLC); format: physicochemical; conditions: closed placement at 60° C. for 1 day

[2H]C([2H])(Oc1cc(-c2cnn(C3CCN(C)CC3)c2)cnc1N)c1cccc(C#CC(C)(C)O)c1 [C]
AUC(0-t) (in vivo [1]; iv, 0.5 mg/kg): 74.8 ng·h/mL | clearance (in vivo [1]; iv, 0.5 mg/kg): 101 mL/min/kg | AUC(0-t) (in vivo [1]; po, 3 mg/kg): 42.8 ng·h/mL | bioavailability (in vivo [1]; po, 3 mg/kg): 9.52%

CN1CCC(n2cc(-c3cnc(N)c(OCc4cccc(C#CC(C)(C)O)c4)c3)cn2)CC1 [Compound A1, reference compound]
remaining percentage of the parent cores after 60 min ([2]; mouse, microsomes, 1 h, 10 µM): 1.13% | remaining percentage of the parent cores after 60 min ([3]; rat, microsomes, 1 h, 10 µM): 2.44% | remaining percentage of the parent cores after 60 min ([4]; beagle, dog, microsomes, 1 h, 10 µM): 0.17% | remaining percentage of the parent cores after 60 min ([5]; cynomolgus macaque, microsomes, 1 h, 10 µM): 0.36% | remaining percentage of the parent cores after 60 min ([6]; human, microsomes, 1 h, 10 µM): 43.84% | AUC(0-t) (in vivo [1]; iv, 1 mg/kg): 116 ng·h/mL | clearance (in vivo [1]; iv, 1 mg/kg): 129 mL/min/kg | AUC(0-t) (in vivo [1]; po, 10 mg/kg): 79.8 ng·h/mL | bioavailability (in vivo [1]; po, 10 mg/kg): 6.84% | bioavailability (in vivo [7]): 4.61% | AUC(0-t) (in vivo [7]; iv, 1 mg/kg): 881 ng·h/mL | clearance (in vivo [7]; iv, 1 mg/kg): 18.9 mL/min/kg | AUC(0-t) (in vivo [7]; po, 10 mg/kg): 388 ng·h/mL

[2H]C([2H])([2H])N1CCC(n2cc(-c3cnc(N)c(OCc4cccc(C#CC(C)(C)O)c4)c3)cn2)CC1 [Compound A2 free base crystalline form A, 4-(3-(((2-amino-5-(1-(1-trideuteriomethylpiperidin-4-yl)-1H-pyrazol-4-yl)pyridin-3-yl)oxy)methyl)phenyl)-2-methylbut-3-yn-2-ol]
HPLC Area (%) 60° C./1 day, peak 1 ([8]; RRT 0.95, starting sample 0.42): 0.41% | HPLC Area (%) 60° C./1 day, peak 2 ([8]; RRT 1.00 (main peak), starting sample 99.26): 99.33% | HPLC Area (%) 60° C./1 day, peak 3 ([8]; RRT 1.05, starting sample 0.22): 0.17% | HPLC Area (%) 60° C./1 day, peak 4 ([8]; RRT 1.06, starting sample 0.10): 0.09%

CN1CCC(c2ncc(-c3cnc(N)c(OCc4cccc(C#CC(C)(C)O)c4)c3)s2)CC1 [Compound B1, reference compound]
remaining percentage of the parent cores after 60 min [2]: 1.24% | remaining percentage of the parent cores after 60 min [3]: 11.21% | remaining percentage of the parent cores after 60 min [4]: 0.12% | remaining percentage of the parent cores after 60 min [5]: 9.11% | remaining percentage of the parent cores after 60 min [6]: 51.82%

[2H]C([2H])([2H])N1CCC(c2ncc(-c3cnc(N)c(OCc4cccc(C#CC(C)(C)O)c4)c3)s2)CC1 [Compound B2]
remaining percentage of the parent cores after 60 min [2]: 42.8% | remaining percentage of the parent cores after 60 min [3]: 43.9% | remaining percentage of the parent cores after 60 min [4]: 8.9% | remaining percentage of the parent cores after 60 min [5]: 23.4% | remaining percentage of the parent cores after 60 min [6]: 70.4%

[2H]C([2H])([2H])C(O)(C#Cc1cccc(COc2cc(-c3cnn(C4CCN(C)CC4)c3)cnc2N)c1)C([2H])([2H])[2H] [D]
AUC(0-t) (in vivo [1]; iv, 0.3 mg/kg): 28.7 ng·h/mL | clearance (in vivo [1]; iv, 0.3 mg/kg): 151 mL/min/kg | AUC(0-t) (in vivo [1]; po, 2 mg/kg): 9.94 ng·h/mL | bioavailability (in vivo [1]; po, 2 mg/kg): 5.2%
